Source: patent US9096550B2, “Bryostatin analogues and methods of making and using thereof” (UNIVERSITY OF UTAH RESEARCH FOUNDATION, priority 2008, dated 2015)
Like-named read-outs stand apart in the source and are kept apart here.

Columns and labels:
Format in all cases: cell-based, human
[1] = test system: LNCaP cells; assay: Proliferation of LNCaP cells (Incucyte confluency); conditions: for effect on LNCaP cell growth: compound alone, confluency at 80 hrs
Procedure: FIGS. 12A-D show the effect of different compounds on the proliferation and apoptosis of LNCaP cells. […] Time-elapsed images were taken with an Incucyte imaging system every hour for 4 days. The proliferation of LNCaP cells is presented as increase in confluency (read by the instrument) at 80 hrs. Data represent the means+SEM of three independent experiments. […] Apoptosis was measured 2 days after treatment by flow cytometry using 7-AAD and Yo-Pro-1 as described in Materials and Methods. Data represent the means+SEM of three independent experiments.
(§1) FIGS. 13A and 13B show the proliferation and morphology of LNCaP cells detected by Incucyte. LNCaP cells were treated with DMSO as control, 300 nM PMA, 1000 nM bryostatin 1 or the bryologue MERLE 21, or with 300 nM PMA in combination with 1000 nM bryostatin 1 or the bryologue MERLE 21. Time-elapsed images were taken by the Incucyte imaging system every hour. […] The arrow indicates the time of treatment. Data are representative of three independent experiments.
(§2) The extent of confluency of LNCaP cells (from ATCC, Manassas, Va.) and the morphological changes after treatment were followed in real time using Incucyte (Essen Instruments, Ann Arbor, Mich.). Images of LNCaP cells plated into 24 well plates were taken every 1 hour by the instrument before and after treatment for a total of 4 days. The confluency of the cells was calculated by the instrument's program. The proliferation of LNCaP cells was expressed as the difference in cell confluency before and after treatment.

[2] = test system: LNCaP cells; assay: Early morphology change (cell flattening) of LNCaP cells by Incucyte imaging
Procedure: as §1
as §2, with “Images of LNCaP cells plated into 24 well plates were taken every 1 hour by the instrument before and after treatment for a total of 4 days.” left out
The above measurements were determined at fixed times after compound addition, 80 hr for proliferation and 48 hr for apoptosis. Cell growth was monitored continuously using an Incucyte live cell imaging system. […] At early times (0-6 hrs after treatment), the imaging also detected a transient response, reflecting a change in cell morphology induced by the compounds, superimposed on the slower change in the signal reflecting proliferation. […]

[3] = test system: U937 cells; assay: Inhibition of U937 cell proliferation; conditions: for inhibition of U937 cell proliferation: compound alone
Procedure: U937 cells (Sundstrom, C.; Nilsson, K.: Establishment and characterization of a human histiocytic lymphoma cell line (U-937). Int. J. Cancer 1976, 17: 565-577.), purchased from ATCC (Manassas, Va.) and cultured in RPMI-1640 medium supplemented with 10% FBS (ATCC, Manassas, Va.), were plated in 35 mm dishes at a density of 2×10^5 living cells/ml and treated with different concentrations of the drugs or DMSO. After 72 hours, the number of cells in the supernatant (non-attached cells) and the number of attached cells (after trypsinization) were counted using a Beckman particle counter (Beckman Coulter Inc., Fullerton, Calif.). The number of attached cells is expressed as percent of total cells (FIGS. 8-10).
(§3) U937 cells were treated with PMA (0.1-100 nM), bryostatin 1 (1-1000 nM), the indicated compound (1-1000 nM), 10 nM PMA with different concentrations of bryostatin 1 (1-1000 nM) or 10 nM PMA with different concentrations of indicated compound (1-1000 nM). The number of attached and non-attached cells was counted and the number of total cells was expressed as % of control. The bars and error bars represent the average and the standard error of the mean of five independent experiments (FIGS. 8-10).
(§4) U937 cells (Sundstrom and Nilsson, 1976), purchased from ATCC (Manassas, Va.) and cultured in RPMI-1640 medium supplemented with 10% FBS (ATCC, Manassas, Va.), were plated in 35 mm dishes at a density of 1×10^5 living cells/ml and treated with different concentrations of the drugs or DMSO. After 72 hours, the number of cells in the supernatant (non-attached cells) and the number of attached cells (after trypsinization) were counted using a particle counter. The number of attached cells is expressed as percent of total cells.
U937 cells were treated with PMA (0.01-100 nM), bryostatin1 (0.1-1000 nM), analogue 12 (0.1-1000 nM), 10 nM PMA with different concentrations of bryostatin 1 (0.1-1000 nM) or 10 nM PMA with different concentrations of analogue 12 (0.1-1000 nM). The numbers of attached and non-attached cells were counted and the number of total cells was expressed as % of control. The bars and error bars represent the average and the standard error of the mean of at least three independent experiments.
as §4, with “U-937” for “U937”
as §3, with “U-937” for “U937”, “at least three” for “five”, “experiments.” for “experiments (FIGS. 8-10).”

SMILES | effect on LNCaP cell growth [1] | persistence of cell flattening (early morphological response) [2] | inhibition of U937 cell proliferation [3] | block of the PMA inhibition of LNCaP cell growth ([1]; 300 nM PMA combined with 1000 nM compound, 80 hrs) | persistence of cell flattening (early morphological response) ([2]; LNCaP cells, 0-9 hrs after treatment) | block of PMA inhibition of U937 cell proliferation ([3]; 10 nM PMA with different concentrations of compound) | inhibition of U937 cell proliferation ([3]; listed as Bryostatin 1)
CCCCCCCCCCCCCC(=O)O[C@@H]1[C@@H](C)[C@@]2(O)[C@@H](C=C(CO)C[C@]3(O)C(=O)C(C)=C[C@@H]23)[C@@H]2C(C)(C)[C@]12OC(C)=O [PMA] | marked inhibition of cell proliferation | still evident at 6 hrs but reversing by 9 hrs | inhibits cell proliferation |  |  |  | 
CCC/C=C/C=C/C(=O)O[C@H]1/C(=C/C(=O)OC)C[C@H]2C[C@H]([C@@H](C)O)OC(=O)C[C@H](O)C[C@@H]3C[C@H](OC(C)=O)C(C)(C)[C@](O)(C[C@@H]4C/C(=C/C(=O)OC)C[C@H](/C=C/C(C)(C)[C@]1(O)O2)O4)O3 [bryostatin 1] | little effect |  | not strongly antiproliferative | blocked the inhibition of LNCaP cell growth by PMA | had reversed by 6 hrs after treatment | able to block the effect of PMA in a dose dependent manner | much less effect on either response
